{"source": "patent US9649379B2", "about": "“Pharmaceutical composition and pharmaceutical kit for the treatment of hepatocellular carcinoma” (ALMA MATER STUDIORUM—UNIVERSITA' DI BOLOGNA, priority 2007, dated 2017)", "test_system": "Cleaved PARP", "assay": "Apoptosis analysis: Western blot of cleaved PARP after doxorubicin", "type": "cell-based, human", "conditions": "doxorubicin 100 μg/ml, infected HepG2 cells", "procedure": "Stably infected cell populations of HepG2 cells were seeded into 6-well dishes and allowed to attach for 24 hours, washed and cultured in fresh complete medium with 100 ug/ml doxorubicin (Sigma) for 1 h, 3 h, 6 h, 12 h, 18 h and 24 h. Doxorubicin incorporation was detected by FACS counting of 10,000 events.\nCultured cells were dissolved in lysis buffer containing 10 mM Tris-HCl pH 7.4, 2.5 mM MgCl2, 1% TritonX 100, 1 mM DTT, 0.1 mM phenylmethylsulfonyl fluoride (PMSF), 1 mM Na3VO4, 1 mM NaF and protease inhibitors (Sigma Chemical Company, St. Louis, Mo.). The lysate was centrifuged at 4° C., 15,000×g, for 15 min and the supernatant assayed for protein concentration by Bio-Rad protein assay (Bio-Rad). […]\nAfter repeated washing in PBS containing 0.1% Tween 20 (PBST), membranes were incubated with anti-mouse or anti-rabbit HRP-conjugated secondary antibodies using the EnVision dextran polymer visualization system (Dako). […] Digital images of autoradiographs were acquired with a Fluor-S MultiImager scanner (BioRad) and signals were quantitated with Quantity-one densitometric software (BioRad, Hercules, Calif.) in absorbance units after light calibration with a reference autoradiograph."}
{"compound": "COc1cccc2c1C(=O)c1c(O)c3c(c(O)c1C2=O)C[C@@](O)(C(=O)CO)C[C@@H]3O[C@H]1C[C@H](N)[C@H](O)[C@H](C)O1", "note": "[Doxorubicin, doxorubicin]", "values": [{"measurement": "cleavage of PARP", "result": "caused cleavage of PARP"}]}
